Experimental data: ChEMBL document CHEMBL1201862, “PubChem BioAssay data set” (2004)
Activity calls are given as the source filed them.

Tests used:
[1] = molecular target: T1, Caspase-3 (Homo sapiens, UniProt P42574); experiment: SAR Analysis of small molecule inhibitors of Sentrin-specific proteases (SENPs) using a Caspase-3 Selectivity assay. [Related pubchem assays (depositor defined):AID2540, AID2599, AID434973, AID489001]; assay type: functional
T1 sequence (P42574 whole entry): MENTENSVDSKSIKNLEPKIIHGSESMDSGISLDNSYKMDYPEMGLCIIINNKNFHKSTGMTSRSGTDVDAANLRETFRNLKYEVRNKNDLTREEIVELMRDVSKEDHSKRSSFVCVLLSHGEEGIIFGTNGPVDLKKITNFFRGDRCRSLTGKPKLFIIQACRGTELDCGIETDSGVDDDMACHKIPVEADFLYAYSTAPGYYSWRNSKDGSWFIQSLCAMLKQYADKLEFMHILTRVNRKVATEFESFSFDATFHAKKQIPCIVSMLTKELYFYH

[2] = molecular target: T2, Sentrin-specific protease 8 (Homo sapiens, UniProt Q96LD8); experiment: inhibition of human SENP8 cleavage activity – biochemical, luminescence, SAR follow-up (AID 504501); assay type: functional
T2 sequence (Q96LD8 whole entry): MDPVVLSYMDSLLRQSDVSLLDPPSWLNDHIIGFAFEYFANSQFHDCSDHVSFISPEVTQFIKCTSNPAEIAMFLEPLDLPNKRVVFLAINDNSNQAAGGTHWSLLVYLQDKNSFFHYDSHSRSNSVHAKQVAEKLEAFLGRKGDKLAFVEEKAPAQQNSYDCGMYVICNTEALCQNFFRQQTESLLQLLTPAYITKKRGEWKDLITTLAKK

[3] = molecular target: T3, Sentrin-specific protease 7 (Homo sapiens, UniProt Q9BQF6); experiment: inhibition of human SENP7 cleavage activity – biochemical, luminescence, SAR follow-up (AID 504497); assay type: functional
T3 sequence (Q9BQF6 whole entry): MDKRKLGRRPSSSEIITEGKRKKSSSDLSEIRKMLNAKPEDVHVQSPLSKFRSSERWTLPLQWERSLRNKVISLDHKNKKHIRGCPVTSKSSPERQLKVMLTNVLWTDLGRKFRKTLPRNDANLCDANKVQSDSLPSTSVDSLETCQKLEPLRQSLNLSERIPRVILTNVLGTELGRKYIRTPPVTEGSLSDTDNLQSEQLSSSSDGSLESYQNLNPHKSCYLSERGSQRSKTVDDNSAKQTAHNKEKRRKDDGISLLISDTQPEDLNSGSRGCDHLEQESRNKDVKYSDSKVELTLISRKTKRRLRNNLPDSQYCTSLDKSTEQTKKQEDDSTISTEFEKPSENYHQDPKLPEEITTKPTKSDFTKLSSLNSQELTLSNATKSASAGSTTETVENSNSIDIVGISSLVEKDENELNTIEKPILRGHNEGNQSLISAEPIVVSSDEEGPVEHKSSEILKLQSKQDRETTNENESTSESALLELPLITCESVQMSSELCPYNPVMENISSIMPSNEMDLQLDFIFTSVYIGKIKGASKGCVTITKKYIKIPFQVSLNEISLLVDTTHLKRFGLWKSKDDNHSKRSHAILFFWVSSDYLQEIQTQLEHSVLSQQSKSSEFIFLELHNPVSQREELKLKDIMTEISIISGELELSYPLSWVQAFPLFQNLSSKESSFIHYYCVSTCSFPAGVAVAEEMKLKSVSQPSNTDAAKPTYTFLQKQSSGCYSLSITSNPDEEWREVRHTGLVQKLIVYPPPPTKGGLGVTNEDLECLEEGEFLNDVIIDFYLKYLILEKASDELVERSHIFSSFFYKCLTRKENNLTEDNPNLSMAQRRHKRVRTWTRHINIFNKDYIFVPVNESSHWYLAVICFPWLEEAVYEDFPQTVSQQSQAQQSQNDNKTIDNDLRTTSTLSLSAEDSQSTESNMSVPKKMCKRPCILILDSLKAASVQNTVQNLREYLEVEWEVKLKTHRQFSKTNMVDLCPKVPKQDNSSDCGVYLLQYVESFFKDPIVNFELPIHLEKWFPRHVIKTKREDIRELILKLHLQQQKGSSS

[4] = molecular target: T4, Sentrin-specific protease 6 (Homo sapiens, UniProt Q9GZR1); experiment: SAR Analysis of small molecule inhibitors of Sentrin-specific protease 6 (SENP6) using a Luminescent assay. [Related pubchem assays (depositor defined):AID2582, AID2599]; assay type: functional
T4 sequence (Q9GZR1 whole entry): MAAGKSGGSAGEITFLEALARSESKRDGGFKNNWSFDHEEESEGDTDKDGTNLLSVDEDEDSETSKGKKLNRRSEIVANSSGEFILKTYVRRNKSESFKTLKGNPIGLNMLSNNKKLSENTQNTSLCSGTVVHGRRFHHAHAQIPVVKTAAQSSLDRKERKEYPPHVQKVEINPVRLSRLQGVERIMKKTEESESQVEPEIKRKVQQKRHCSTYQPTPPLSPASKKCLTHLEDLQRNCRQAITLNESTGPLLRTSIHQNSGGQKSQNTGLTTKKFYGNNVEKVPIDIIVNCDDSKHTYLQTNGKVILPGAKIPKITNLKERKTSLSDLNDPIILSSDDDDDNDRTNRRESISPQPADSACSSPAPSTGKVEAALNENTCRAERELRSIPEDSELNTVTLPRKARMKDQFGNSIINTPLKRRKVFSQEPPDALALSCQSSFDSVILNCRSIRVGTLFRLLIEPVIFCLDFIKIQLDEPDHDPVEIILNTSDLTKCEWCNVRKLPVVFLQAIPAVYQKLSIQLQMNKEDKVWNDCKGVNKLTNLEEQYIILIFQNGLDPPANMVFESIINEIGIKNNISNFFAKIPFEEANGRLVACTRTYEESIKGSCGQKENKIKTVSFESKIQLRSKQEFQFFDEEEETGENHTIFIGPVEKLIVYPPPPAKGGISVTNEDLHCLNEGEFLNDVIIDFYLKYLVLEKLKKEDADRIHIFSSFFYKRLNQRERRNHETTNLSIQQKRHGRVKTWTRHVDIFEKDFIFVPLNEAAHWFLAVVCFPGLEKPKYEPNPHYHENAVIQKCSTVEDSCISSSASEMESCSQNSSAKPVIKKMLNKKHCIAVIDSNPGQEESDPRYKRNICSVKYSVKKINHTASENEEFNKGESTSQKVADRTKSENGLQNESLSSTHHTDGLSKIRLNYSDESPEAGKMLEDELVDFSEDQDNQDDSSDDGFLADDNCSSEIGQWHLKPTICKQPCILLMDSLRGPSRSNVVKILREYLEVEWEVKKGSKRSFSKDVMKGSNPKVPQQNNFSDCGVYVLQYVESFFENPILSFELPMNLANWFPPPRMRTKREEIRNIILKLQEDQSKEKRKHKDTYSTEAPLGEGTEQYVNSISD

[5] = Luminescence Cell-Based Dose Response HTS to Identify Inhibitors of 5'UTR Stem-Loop Driven Prion Protein mRNA Translation in H4 Neuroglioblastoma Cells. [Related pubchem assays: 1827 (Project Summary), 1813 (Primary HTS)]; assay type: functional
[6] = molecular target: Peroxisome proliferator-activated receptor gamma/Nuclear receptor coactivator 1 (Homo sapiens, UniProt P37231); experiment: (§1) TR-FRET dose response biochemical High Throughput Screening assay for agonists of the steroid receptor coactivator 1 (SRC-1) recruitment by the peroxisome proliferator-activated receptor gamma (PPAR gamma): non-selective agonists. [Related pubchem assays (depositor defined):AID1300, AID1808, AID504735, AID631]; assay type: protein assay
[7] = system: Vero; experiment: cells; assay type: functional, cell-based; details: Chlorocebus sabaeus
[8] = molecular target: Peroxisome proliferator-activated receptor gamma/Nuclear receptor coactivator 3 (Homo sapiens, UniProt P37231); experiment: as §1, with “3 (SRC-3)” for “1 (SRC-1)”, “assays: 1301 (Confirmation screen.), 1048 (Primary screen.)]” for “assays (depositor defined):AID1300, AID1808, AID504735, AID631]”; assay type: functional
[9] = luciferase reporter signal suppression in cells – H4 neuroglioma cells, luminescence, dose response (AID 1990); assay type: functional, cell-based
[10] = alpha-synuclein stem-loop luciferase translation blockers – H4 neuroglioma cells, luminescence, confirmation (AID 1988); assay type: functional, cell-based
[11] = molecular target: Peroxisome proliferator-activated receptor gamma/Nuclear receptor coactivator 2 (Homo sapiens, UniProt P37231); experiment: TR-FRET dose response biochemical High Throughput Screening assay for agonists of the steroid receptor coactivator 2 (SRC-2) recruitment by the peroxisome proliferator-activated receptor gamma (PPAR gamma): non-selective agonists. [Related pubchem assays: 1297, 1032 ]; assay type: functional

Peroxisome proliferator-activated receptor gamma/Nuclear receptor coactivator 3, sequence (P37231 whole entry): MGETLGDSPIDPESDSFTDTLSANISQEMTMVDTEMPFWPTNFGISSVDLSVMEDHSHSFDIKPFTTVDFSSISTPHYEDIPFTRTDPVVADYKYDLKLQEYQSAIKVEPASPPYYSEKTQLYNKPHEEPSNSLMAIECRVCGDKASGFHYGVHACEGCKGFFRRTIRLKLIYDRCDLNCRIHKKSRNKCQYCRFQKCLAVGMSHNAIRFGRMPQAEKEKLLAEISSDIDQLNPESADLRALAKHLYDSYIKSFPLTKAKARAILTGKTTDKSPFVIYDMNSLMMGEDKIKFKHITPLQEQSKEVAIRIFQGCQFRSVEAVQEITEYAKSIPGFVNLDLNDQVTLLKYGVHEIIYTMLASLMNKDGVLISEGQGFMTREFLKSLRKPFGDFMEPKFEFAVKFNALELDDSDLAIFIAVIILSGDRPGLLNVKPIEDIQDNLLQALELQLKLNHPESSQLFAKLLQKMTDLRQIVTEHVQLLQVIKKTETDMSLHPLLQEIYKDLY
Peroxisome proliferator-activated receptor gamma/Nuclear receptor coactivator 3, sequence (Q9Y6Q9 whole entry, further chain): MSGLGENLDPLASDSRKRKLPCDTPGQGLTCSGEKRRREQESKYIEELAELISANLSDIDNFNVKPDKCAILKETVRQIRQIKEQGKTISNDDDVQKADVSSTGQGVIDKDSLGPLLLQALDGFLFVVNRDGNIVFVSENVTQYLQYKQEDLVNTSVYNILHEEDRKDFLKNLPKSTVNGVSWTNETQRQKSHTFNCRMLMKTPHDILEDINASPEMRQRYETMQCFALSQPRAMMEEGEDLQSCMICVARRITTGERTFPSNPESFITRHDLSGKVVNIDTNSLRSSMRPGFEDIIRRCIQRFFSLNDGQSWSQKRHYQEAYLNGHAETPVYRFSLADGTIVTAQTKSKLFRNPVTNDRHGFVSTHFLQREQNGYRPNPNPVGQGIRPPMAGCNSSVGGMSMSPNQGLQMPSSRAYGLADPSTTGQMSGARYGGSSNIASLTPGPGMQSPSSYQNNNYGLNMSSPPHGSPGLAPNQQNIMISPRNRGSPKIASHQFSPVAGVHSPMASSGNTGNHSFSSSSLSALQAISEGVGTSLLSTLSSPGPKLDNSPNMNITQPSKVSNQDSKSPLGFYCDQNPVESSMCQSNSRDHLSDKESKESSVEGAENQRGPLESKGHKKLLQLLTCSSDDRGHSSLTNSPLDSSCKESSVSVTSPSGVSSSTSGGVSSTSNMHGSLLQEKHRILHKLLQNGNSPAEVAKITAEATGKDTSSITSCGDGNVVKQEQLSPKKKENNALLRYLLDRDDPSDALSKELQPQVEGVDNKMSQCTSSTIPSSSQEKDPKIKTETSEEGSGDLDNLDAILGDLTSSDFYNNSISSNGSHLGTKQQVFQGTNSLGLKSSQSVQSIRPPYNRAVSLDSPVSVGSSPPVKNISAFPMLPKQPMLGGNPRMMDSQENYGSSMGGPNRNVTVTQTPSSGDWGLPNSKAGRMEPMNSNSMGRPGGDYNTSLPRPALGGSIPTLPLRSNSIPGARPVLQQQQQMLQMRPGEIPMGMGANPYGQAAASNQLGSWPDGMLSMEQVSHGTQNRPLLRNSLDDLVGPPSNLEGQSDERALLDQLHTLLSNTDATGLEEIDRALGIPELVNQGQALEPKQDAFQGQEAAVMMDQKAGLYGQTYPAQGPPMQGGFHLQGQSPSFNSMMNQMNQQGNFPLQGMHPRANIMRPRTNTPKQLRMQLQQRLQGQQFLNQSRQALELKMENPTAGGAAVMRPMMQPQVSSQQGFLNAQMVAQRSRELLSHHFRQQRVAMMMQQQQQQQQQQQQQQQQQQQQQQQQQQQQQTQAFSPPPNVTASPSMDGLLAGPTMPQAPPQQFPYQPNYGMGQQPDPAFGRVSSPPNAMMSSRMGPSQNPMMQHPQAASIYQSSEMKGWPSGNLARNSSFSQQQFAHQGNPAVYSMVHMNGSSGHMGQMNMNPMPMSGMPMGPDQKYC
Peroxisome proliferator-activated receptor gamma/Nuclear receptor coactivator 1, sequence (P37231 whole entry): as the sequence (P37231 whole entry) above
Peroxisome proliferator-activated receptor gamma/Nuclear receptor coactivator 1, sequence (Q15788 whole entry, further chain): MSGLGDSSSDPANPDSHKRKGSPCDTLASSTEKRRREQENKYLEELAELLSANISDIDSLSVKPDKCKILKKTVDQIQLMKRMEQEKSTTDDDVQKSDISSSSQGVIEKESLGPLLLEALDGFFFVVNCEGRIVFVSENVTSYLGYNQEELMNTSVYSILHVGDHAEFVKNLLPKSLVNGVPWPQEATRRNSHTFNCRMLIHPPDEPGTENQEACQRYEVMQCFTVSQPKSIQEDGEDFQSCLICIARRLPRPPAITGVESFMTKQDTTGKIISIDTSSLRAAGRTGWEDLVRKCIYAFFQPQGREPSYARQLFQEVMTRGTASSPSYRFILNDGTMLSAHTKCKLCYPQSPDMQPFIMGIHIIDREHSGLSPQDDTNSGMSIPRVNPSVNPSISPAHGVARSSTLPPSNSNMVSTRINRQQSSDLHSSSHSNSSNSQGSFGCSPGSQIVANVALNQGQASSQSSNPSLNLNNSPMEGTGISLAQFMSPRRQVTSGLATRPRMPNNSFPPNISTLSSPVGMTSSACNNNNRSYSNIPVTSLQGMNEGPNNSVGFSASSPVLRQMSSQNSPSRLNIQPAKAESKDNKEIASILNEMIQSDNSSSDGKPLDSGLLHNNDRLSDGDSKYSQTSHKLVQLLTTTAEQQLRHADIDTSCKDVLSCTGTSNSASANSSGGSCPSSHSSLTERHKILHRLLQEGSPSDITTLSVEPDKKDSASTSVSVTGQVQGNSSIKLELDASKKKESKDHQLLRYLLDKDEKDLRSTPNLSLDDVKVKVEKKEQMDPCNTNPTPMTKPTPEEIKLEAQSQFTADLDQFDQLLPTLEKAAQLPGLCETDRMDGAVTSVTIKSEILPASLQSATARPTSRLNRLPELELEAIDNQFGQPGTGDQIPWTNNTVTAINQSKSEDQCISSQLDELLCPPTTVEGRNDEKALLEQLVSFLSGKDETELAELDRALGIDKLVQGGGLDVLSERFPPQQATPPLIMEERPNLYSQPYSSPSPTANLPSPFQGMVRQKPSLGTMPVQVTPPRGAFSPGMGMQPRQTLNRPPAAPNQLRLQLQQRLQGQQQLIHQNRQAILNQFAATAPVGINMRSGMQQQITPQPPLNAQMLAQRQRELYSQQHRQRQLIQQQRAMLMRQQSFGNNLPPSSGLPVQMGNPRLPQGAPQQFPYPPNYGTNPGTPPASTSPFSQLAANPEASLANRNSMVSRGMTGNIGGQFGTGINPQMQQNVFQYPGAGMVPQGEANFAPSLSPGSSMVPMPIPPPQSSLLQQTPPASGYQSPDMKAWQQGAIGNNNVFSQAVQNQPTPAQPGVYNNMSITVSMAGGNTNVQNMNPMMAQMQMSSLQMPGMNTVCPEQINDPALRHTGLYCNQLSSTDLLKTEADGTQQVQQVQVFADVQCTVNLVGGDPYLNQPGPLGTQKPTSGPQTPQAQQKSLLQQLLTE

In the case of `Brc1ccc(-c2nc(/C=C/c3ccccc3)no2)cc1`, the IC50 [1] was > 99 µM (inactive), the IC50 [2] was > 99 µM (inactive) and the IC50 [3] was > 99 µM (inactive). For the same compound, the IC50 [4] was > 99 µM (inactive).
In the case of `COC(=O)c1ccccc1NC1=C/C(=N/S(=O)(=O)c2cccs2)c2ccccc2C1=O`, the IC50 [1] was 24.5 µM (active), the IC50 [2] was 4.02 µM (active) and the IC50 [3] was 2.42 µM (active). The IC50 [4] was 2.15 µM (active).
In the case of `Cc1ccccc1-c1nnc(S)n1/N=C/c1ccc(-c2ccccc2Br)o1`, the EC50 [5] was 13.9 µM (active), the EC50 [6] was 29.4 µM (inactive) and the IC50 [7] was 2.91 µM (active). The EC50 [8] was > 79.4 µM (not active), the EC50 [9] was 18.7 µM (active) and the EC50 [10] was 11.7 µM (active). For the same compound, the EC50 [11] was 28.6 µM (not active).
